Experimental data published in patent EP3858336A1, “AMORPHOUS SOLID DISPERSION OF 8-CHLORO-N-(4-(TRIFLUOROMETHOXY)PHENYL)QUINOLIN-2-AMINE” (ABIVAX, priority 2020, dated 2021).

Experiments:
[1] = Two-step dissolution / precipitation Fasted Human in-vitro model (Fassif); assay type: physicochemical; details: thermodynamic from solid, final pH = 6.5, 30min in FaSSGF pH1.2 + 120min in FaSSIF x2 pH6.5 / Sodium bicarbonate 90/10 v/v, 37°C, read-out: solubility (HPLC-UV dosage of supernatant), last measurement point
Description: (§1) ABX464 in its unique crystalline form and ABX464 :VA64 ASD (prepared according to example 1 above) were tested by using both Fasted and Fed Human in-vitro models (respectively named Fassif and Fessif models). These models simulate respectively fasted and fed state gastrointestinal fluids for dissolution testing.
For the Fasted in-vitro model, 11.4mg of ABX464:VA64 ASD (4.0mg equivalent ABX464) were weighed in 6 different vials. In all vials, 1ml of FaSSGF pH1.2 solution pre-heated at 37°C were added. Suspension were then vortexed at 37°C. After 15min vortex, suspension of the first vial was centrifuged 5min at 18000 rpm and filtered under 0.45µm filter (Millex LCR filter ref. SLCR0.13NK) for HPLC-UV dosage of supernatant. After 30min vortex, suspension of the second vial was centrifuged 5min at 18000 rpm and filtered under 0.45µm filter (Millex LCR filter ref. SLCR0.13NK) for HPLC-UV dosage of supernatant.
After 30min vortex, 1ml of FaSSIF x2 pH6.5 / Sodium bicarbonate 90/10 v/v pre-heated at 37°C was added on other 4 vials. Suspension were then vortexed at 37°C. After 15min vortex, suspension of the third vial was centrifuged 5min at 18000 rpm and filtered under 0.45µm filter (Millex LCR filter ref. SLCR0.13NK) for HPLC-UV dosage of supernatant. […]

[2] = Two-step dissolution / precipitation Fed Human in-vitro model (Fessif); assay type: physicochemical; details: thermodynamic from solid, final pH 5.0, 60min in FeSSGF pH3.0 + 120min in FeSSIF x3 pH5.0, 37°C, read-out: solubility (HPLC-UV dosage of supernatant), last measurement point
Description: as §1
For the Fed in-vitro model, 11.4mg of ABX464:VA64 ASD (4.0mg equivalent ABX464) were weighed in 7 different vials. In all vials, 1ml of FeSSGF pH3.0 solution pre-heated at 37°C were added. Suspension were then vortexed at 37°C. After 15min vortex, suspension of the first vial was centrifuged 5min at 18000 rpm and filtered under 0.45µm filter (Millex LCR filter ref. SLCR0.13NK) for HPLC-UV dosage of supernatant. After 30min vortex, suspension of the second vial was centrifuged 5min at 18000 rpm and filtered under 0.45µm filter (Millex LCR filter ref. SLCR0.13NK) for HPLC-UV dosage of supernatant. After 60min vortex, suspension of the third vial was centrifuged 5min at 18000 rpm and filtered under 0.45µm filter (Millex LCR filter ref. SLCR0.13NK) for HPLC-UV dosage of supernatant.
After 60min vortex, 0.5ml of FeSSIF x3 pH5.0 pre-heated at 37°C was added on other 4 vials. Suspension were then vortexed at 37°C. […]

solubility at 120 min [1]: 70 µg/mL
solubility at 120 min [2]: 508 µg/mL
SMILES: FC(F)(F)Oc1ccc(Nc2ccc3cccc(Cl)c3n2)cc1 [ABX464, 8-Chloro-N-(4-(trifluoromethoxy)phenyl)quinolin-2-amine]
